In this assay the test system is Cryptococcus neoformans. As to the kind of experiment: Antimicrobial activity against Cryptococcus neoformans isolates in CSF from meningitis patients after 14 day iv treatment. The format is functional.

Compound `C[C@@H]1[C@H](O)[C@@H](C)/C=C/C=C/C=C/C=C/C=C/C=C/C=C/[C@H](O[C@@H]2O[C@H](C)[C@@H](O)[C@H](N)[C@@H]2O)C[C@@H]2O[C@](O)(C[C@@H](O)C[C@@H](O)[C@H](O)CC[C@@H](O)C[C@@H](O)CC(=O)O[C@H]1C)C[C@H](O)[C@H]2C(=O)O` [AMPHOTERICIN B] gave a CFU/ml of 0.
